Measurements reported in US4387105A, “Methods of treating atherosclerosis with dialkylureas and dialkylthioureas” (priority 1982, dated 1983).

Legend:
cholesterol absorption [1] = details: po, 0.03 % of diet, 336 h
Protocol: Inhibition of cholesterol absorption was determined by feeding male Sprague-Dawley rats, weighing 150-170 g., a 1% cholesterol:0.5% cholic acid diet for 2 weeks. The diet also contained compounds being tested at a dose of 0.03% of the diet. Control rats were fed the same diet without any compound. At the end of the test the rats were sacrificed by decapitation. […] Livers are removed, a 0.4 g sample is taken from the center of the large lobe, and the sample is subjected to saponification using 25% saturated potassium hydroxide in ethanol. The resulting neutral sterols are extracted with petroleum ether and extract analyzed for cholesterol. The effectiveness of the compound in inhibiting cholesterol absorption is measured by the lowering of either serum cholesterol or liver cholesterol relative the values for control rats.

cholesterol absorption [2] = assay: Inhibition of cholesterol absorption in cholesterol/cholic acid fed rats given [4-14C] cholesterol by gavage (fecal 14C sterols); type: in vivo, male Sprague-Dawley rats; design: key: Active: A compound is considered active in inhibiting cholesterol absorption if it meets at least the first two criteria; details: 0.01% to 0.1% of the diet for 2 weeks; [4-14C] cholesterol plus 2 mg. test compound by gavage after 9 days; feces collected 5 days
Protocol: Inhibition of cholesterol absorption also was determined by feeding male Sprague-Dawley rats, weighing 150-170 g., a 1% cholesterol:0.5% cholic acid diet for 2 weeks. The diet also contained compounds being tested at doses of between 0.01% and 0.1% of the diet. After the rats had been on the test diet for 9 days each rat is given by gavage a sonicated mixture of [4-^14 C] cholesterol (6μCi), 0.2 ml. triolein, 10 mg. cholic acid, 20 mg. cholesterol and 2 mg. of test compound in 0.8 ml. of 10% non-fat dry milk. Feces were collected for each 24 hour period for the remaining 5 days during which the rats were maintained on the 1% cholesterol:0.5% cholic acid plus test compound diet. Fecal ^14 C-neutral sterols were extracted with petroleum ether from saponified feces by the method of Grundy, S. M., et al., J. Lipid Res., 6, 397 (1965) and counted in a scintillation counter. Acidic sterols (bile acids) were extracted by acidifying the saponified feces and extracting in chloroform:methanol (2:1) and counting the chloroform phase in a scintillation counter. Total extraction of radioactivity (98-100%) from saponified feces is realized by this procedure.
Radioactivity in liver and adrenals were determined by saponification and extraction into petroleum ether and counting by scintillation techniques. Total cholesterol in liver and adrenals was determined by the cholorimetric melthod of Zlatkis, A., et al., J. Lab. Clin. Med., 41, 486 (1953) on saponified-organic solvent extracted tissue prepared by the method of Trinder, P., Analyst, 77, 321 (1952). Serum cholesterol and triglycerides were assayed enzymaticaly by the method of Allain, C. C., et al., Clin. Chem., 20, 470 (1974) on a Centrifichem 400 Analyzer. ^14 C-Cholesterol in serum was determined by direct scintillation counting.
The effect of test compounds on cholesterol absorption was determined by:
1. increase in excreted ^14 C-neutral sterol
2. decrease in excreted ^14 C-acidic sterol
3. decrease in ^14 C-cholesterol or ^14 C-cholesteryl ester in the liver
4. decrease in ^14 C-cholesterol or ^14 C-cholesteryl ester in the serum. […]

[3] = molecular target: T1, fatty acyl CoA:cholesterol acyl transferase (ACAT) (Rattus norvegicus, UniProt O70536); assay: Inhibition of ACAT in rat adrenal microsomal supernatant (14C-oleoyl CoA, cholesteryl ester counted); type: biochemical; design: dose or concentration left out as unconfirmed; details: vs control without compound
T1 construct: The supernatant, containing the microsomal fraction, served as the source of the cholesterol-esterifying enzyme; from tissue; host or cells: rat adrenals (1000 x g supernatant containing the microsomal fraction)
T1 sequence (O70536 1-545): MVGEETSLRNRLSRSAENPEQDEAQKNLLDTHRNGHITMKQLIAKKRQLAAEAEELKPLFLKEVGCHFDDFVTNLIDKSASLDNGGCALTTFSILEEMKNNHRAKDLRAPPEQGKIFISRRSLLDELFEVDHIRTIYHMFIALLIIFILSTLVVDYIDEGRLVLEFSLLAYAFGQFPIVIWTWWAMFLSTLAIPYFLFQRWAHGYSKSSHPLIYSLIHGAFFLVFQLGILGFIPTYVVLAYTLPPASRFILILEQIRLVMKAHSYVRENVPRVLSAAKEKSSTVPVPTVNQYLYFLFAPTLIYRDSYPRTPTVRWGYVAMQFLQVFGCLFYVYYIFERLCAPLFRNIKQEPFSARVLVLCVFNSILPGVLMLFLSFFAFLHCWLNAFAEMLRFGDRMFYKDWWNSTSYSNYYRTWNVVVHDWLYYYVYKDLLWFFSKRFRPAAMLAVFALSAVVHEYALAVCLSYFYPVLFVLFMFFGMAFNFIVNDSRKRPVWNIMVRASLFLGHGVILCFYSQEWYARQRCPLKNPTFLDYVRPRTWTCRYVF
Protocol: The compounds of the present invention were assayed for two types of biological activity related to their potential use as antiatherosclerotic agents. Compounds were tested in vitro for the ability to inhibit the enzyme fatty acyl CoA:cholesterol acyl transferase (ACAT) and in vivo for serum hypolipidemic activity as measured by their ability to inhibit lipid absorption in rats. The compounds were tested for their ability to inhibit ACAT according to the following procedure:
Rat adrenals were homogenized in 0.2 M monobasic potassium phosphate buffer, pH 7.4, and centrifuged at 1000 times gravity for 15 minutes at 5° C. The supernatant, containing the microsomal fraction, served as the source of the cholesterol-esterifying enzyme, fatty acyl CoA:cholesterol acyl transferase (ACAT). A mixture comprising 50 parts of adrenal supernatant, 10 parts of albumin (BSA) (50 mg./ml.), 3 parts of test compound (final concentration […].) and 500 parts of buffer was preincubated at 37° C. for 10 minutes. After treatment with 20 parts of oleoyl CoA(^14 C-[…]) the mixture was incubated at 37° C. for 10 minutes. A control mixture, omitting the test compound, was prepared and treated in the same manner. The lipids from the incubation mixture were extracted into an organic solvent and separated by thin-layer chromatography. The cholesteryl ester fraction was counted in a scintillation counter. This procedure is a modification of that described by Hashimoto, et al., Life Scie., 12 (Part II), 1-12 (1973).

Row | SMILES | Result (inhibition of cholesterol absorption: lowering of either serum cholesterol or liver cholesterol relative to control rats) (cholesterol absorption [1]) | Result (inhibition of cholesterol absorption: increase in excreted 14C-neutral sterol and decrease in excreted 14C-acidic sterol) (cholesterol absorption [2]) | % Inhibition [3] [%]
1 | CCCCN(CCCC)C(=O)Nc1ccc(C)cc1C [1,1-Di-(n-butyl)-3-(2,4-dimethylphenyl)urea] | Active | Active | 81.1
2 | CCCCN(CCCC)C(=O)Nc1cc(C)cc(C)c1 [1,1-Di-(n-butyl)-3-(3,5-dimethylphenyl)urea] | Active | – | 83.5
3 | CCCCN(CCCC)C(=O)Nc1cccc(Cl)c1C [1,1-Di-(n-butyl)-3-(3-chloro-2-methylphenyl)urea] | Active | – | 80.2
4 | CCCCCCCCCCN(CCCCCCCCCC)C(=O)Nc1ccc(C)cc1C [1,1-Di-(n-decyl)-3-(2,4-dimethylphenyl)urea] | Active | – | 64.0
5 | CCCCCCN(CCCCCC)C(=O)Nc1ccc(C)cc1C [1,1-Di-(n-hexyl)-3-(2,4-dimethylphenyl)urea] | Active | Active | 95.1
6 | Cc1ccc(NC(=O)N(CCC(C)C)CCC(C)C)c(C)c1 [1,1-Di-(n-isopentyl)-3-(2,4-dimethylphenyl)urea] | Active | – | 88.7
7 | CCCCCCCCN(CCCCCCCC)C(=O)Nc1ccc(C)cc1C [1,1-Di-(n-octyl)-3-(2,4-dimethylphenyl)urea] | Active | – | 88.6
8 | CCCCCN(CCCCC)C(=O)Nc1ccc(C)cc1C [1,1-Di-(n-pentyl)-3-(2,4-dimethylphenyl)urea] | Active | Active | 90.3
9 | Cc1ccc(NC(=O)N(CCC(C)CC(C)(C)C)CCC(C)CC(C)(C)C)c(C)c1 (stereo not shown) [1,1-di-(3,5,5-trimethylhexyl)-3-(2,4-dimethylphenyl)urea] | Active | – | 90.4
10 | CCCCN(CCCC)C(=O)Nc1ccccc1C [1,1-di-(n-butyl)-3-(2-methylphenyl)urea, 1,1-Di-(n-butyl)-3-(2-methylphenyl)urea] | Active | – | 61.8
11 | CCCCc1ccc(NC(=O)N(CCCC)CCCC)cc1 [1,1-di-(n-butyl)-3-(4-n-butylphenyl)urea, 1,1-Di-(n-butyl)-3-(4-n-butylphenyl)urea] | Active | – | 93.5
